Here are results for 13 compounds from patent publication US9006440B2, “Furopyridine derivatives” (Merck Patent GmbH, priority 2010, dated 2015).

pIC50: −log10 of the molar value.

Type in all cases: biochemical
In one assay the target is T1, KDR (Homo sapiens, UniProt P35968).
T1 construct: purchased BPS Bioscience, CA, USA
The experiment in a line: KDR enzymatic assay (Caliper LifeSciences technology). On the procedure:
(§1) The assays described here are performed on the Caliper Life Sciences LC3000 system This technology provides data on enzyme activity via measurement of the relative amounts of phosphorylated or unphosphorylated fluorescently labelled substrate peptide at the end of an enzymatic reaction. These different states of peptide are resolved by applying a potential difference across the sample. The presence of the charged phosphate group on the product (as opposed to the substrate) causes a different peptide mobility between the two peptides. This is visualized by excitation of the fluorescent label on the substrate and product peptides and represented as peaks within the analysis software.
(§2) In order to measure inhibitor activity of kinase inhibitors on this technology, a TTP Mosquito liquid handling instrument is used to place 0.25 ul of the appropriate concentration of inhibitor in 100% DMSO (for a dose response curve calculation) into each well of a 384-well plate. To this reaction components are added to a final volume of 25 ul. The table below indicates the sequences and concentrations for the assays described in this report. Standard components are 1 mM DTT (Sigma, D0632), 1 mM MgCl2 (Sigma, M1028), 100 mM HEPES pH 7.5 (Calbiochem, 391338), 0.015% Brij-35 (Sigma, B4184).
(§3) The reaction is incubated for 90 min at 25 C, and then stopped by the addition of 70 ul of Stop buffer (100 mM HEPES pH 7.5, 0.015% Brij-35, 10 mM EDTA (Sigma, E7889)).
(§4) The plate is read on a Caliper LC 3000 in an Off-Chip mobility shift assay format, on a 12-sipper chip. Unphosphorylated substrate and phosphorylated product peptide resolve as separate peaks allowing direct measurement of percentage of conversion of substrate to product. The percent conversion can be plotted against concentration of inhibitor to produce a sigmoidal dose response curve, from which an IC50 can be calculated using GeneData Condoseo or a similar product.

Another assay has as its target T2, SRC (Homo sapiens, UniProt P12931).
T2 construct: purchased Carna Bioscience, Kobe, Japan
The experiment in a line: Src enzymatic assay (Caliper LifeSciences technology). As to the method:
as §1, §2, §3, §4

In the next assay the target is T3, Syk (Homo sapiens, UniProt P43405).
T3 construct: purchased BPS Bioscience, CA, USA
The experiment in a line: Syk enzyme assay (SYK flash plate assay / Caliper mobility shift). The method, boiled down: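 Flashplate format: 2.5 nM SYK, 400 nM biotinylated peptide, 10 μM ATP with 33P-ATP, pH 7.5, 1 h at 30 °C; radioactivity read, staurosporine background. Caliper format: 90 min at 25 °C, mobility-shift read of substrate-to-product conversion; IC50 from dose-response curve.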

T1 sequence (P35968 20-1356): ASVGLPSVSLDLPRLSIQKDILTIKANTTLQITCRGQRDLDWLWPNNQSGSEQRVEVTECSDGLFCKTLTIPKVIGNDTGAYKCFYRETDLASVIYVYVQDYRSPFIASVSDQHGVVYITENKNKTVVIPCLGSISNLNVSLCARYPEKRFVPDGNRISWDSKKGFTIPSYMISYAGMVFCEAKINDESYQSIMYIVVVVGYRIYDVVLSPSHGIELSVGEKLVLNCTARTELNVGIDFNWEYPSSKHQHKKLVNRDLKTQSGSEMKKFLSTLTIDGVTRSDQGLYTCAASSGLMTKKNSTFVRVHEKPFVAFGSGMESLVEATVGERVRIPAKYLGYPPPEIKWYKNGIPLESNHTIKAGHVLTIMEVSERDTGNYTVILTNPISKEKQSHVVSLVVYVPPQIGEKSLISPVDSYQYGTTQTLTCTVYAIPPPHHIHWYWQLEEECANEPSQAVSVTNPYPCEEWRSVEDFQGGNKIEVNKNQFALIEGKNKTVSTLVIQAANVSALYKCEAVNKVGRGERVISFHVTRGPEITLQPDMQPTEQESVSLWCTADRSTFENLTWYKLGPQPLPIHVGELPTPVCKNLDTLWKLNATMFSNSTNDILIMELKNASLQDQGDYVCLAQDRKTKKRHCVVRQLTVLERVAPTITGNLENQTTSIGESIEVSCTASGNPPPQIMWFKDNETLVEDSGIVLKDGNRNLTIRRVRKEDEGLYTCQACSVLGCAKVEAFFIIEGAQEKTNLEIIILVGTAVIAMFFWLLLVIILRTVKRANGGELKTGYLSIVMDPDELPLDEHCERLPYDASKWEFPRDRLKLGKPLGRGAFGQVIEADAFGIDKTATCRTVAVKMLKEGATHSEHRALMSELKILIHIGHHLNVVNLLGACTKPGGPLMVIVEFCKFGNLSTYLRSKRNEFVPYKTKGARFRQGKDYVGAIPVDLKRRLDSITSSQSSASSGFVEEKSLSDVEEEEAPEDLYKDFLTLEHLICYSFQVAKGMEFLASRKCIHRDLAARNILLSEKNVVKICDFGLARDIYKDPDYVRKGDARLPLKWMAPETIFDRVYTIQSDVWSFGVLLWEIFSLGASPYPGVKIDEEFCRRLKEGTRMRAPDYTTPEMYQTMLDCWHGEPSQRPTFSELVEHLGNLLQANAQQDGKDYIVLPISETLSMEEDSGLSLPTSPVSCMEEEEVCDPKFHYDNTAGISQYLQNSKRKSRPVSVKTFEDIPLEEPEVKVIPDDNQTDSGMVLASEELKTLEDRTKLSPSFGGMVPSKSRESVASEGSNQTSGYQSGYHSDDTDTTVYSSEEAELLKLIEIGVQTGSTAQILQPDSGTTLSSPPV
T2 sequence (P12931 whole entry): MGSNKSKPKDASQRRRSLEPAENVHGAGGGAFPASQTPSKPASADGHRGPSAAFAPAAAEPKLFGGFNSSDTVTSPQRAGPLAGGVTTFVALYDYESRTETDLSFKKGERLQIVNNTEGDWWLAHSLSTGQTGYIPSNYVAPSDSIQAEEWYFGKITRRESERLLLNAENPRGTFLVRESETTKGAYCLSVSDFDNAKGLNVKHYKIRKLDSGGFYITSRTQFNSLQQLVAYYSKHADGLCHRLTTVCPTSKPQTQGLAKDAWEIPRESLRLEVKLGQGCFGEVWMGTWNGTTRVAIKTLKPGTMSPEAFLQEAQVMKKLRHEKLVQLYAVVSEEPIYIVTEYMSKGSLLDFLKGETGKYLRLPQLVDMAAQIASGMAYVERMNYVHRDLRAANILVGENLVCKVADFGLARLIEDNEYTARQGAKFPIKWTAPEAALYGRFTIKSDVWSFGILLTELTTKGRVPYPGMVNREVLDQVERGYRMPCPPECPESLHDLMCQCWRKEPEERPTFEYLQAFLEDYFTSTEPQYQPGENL

With `COc1cc(-c2cc3nccc(-c4cccc5[nH]ccc45)c3o2)cc(OC)c1OC` [Compound A20, 7-(1H-Indol-4-yl)-2-(3,4,5-trimethoxy-phenyl)-furo[3,2-b]pyridine], the values for the pIC50 at KDR, against SRC and on Syk were 4.30 to 5.52, 5.52 to 6.52 and over 6.52, respectively.

In the case of `COc1cc(-c2cc3nccc(-c4cccc(OCCN)c4)c3o2)cc(OC)c1OC` [Compound A38, 2-{3-[2-(3,4,5-Trimethoxy-phenyl)-furo[3,2-b]pyridin-7-yl]-phenoxy}-ethylamine], the pIC50 at KDR was 5.52 to 6.52; against SRC, 4.30 to 5.52; at Syk, over 6.52.

As to `COc1cc(-c2cc3nccc(-c4cccc(CN)c4)c3o2)cc(OC)c1OC` [Compound A51, 3-[2-(3,4,5-Trimethoxy-phenyl)-furo[3,2-b]pyridin-7-yl]-benzylamine], the negative logarithm of the IC50 (pIC50) is 5.52 to 6.52 on KDR, 4.30 to 5.52 at SRC and over 6.52 on Syk.

As to `COc1cc(-c2cc3nccc(-c4cccc(CNC(C)=O)c4)c3o2)cc(OC)c1OC` [Compound A52, N-[[3-[2-(3,4,5-trimethoxyphenyl)furo[3,2-b]pyridin-7-yl]phenyl]methyl]-acetamide], the negative-log IC50 (pIC50) is 4.30 to 5.52 against KDR, 4.30 to 5.52 at SRC and over 6.52 at Syk.

`COc1cc(-c2cc3nccc(Nc4ccc(Sc5nccn5C)c(Cl)c4)c3o2)cc(OC)c1OC` [Compound B16, [3-Chloro-4-(1-methyl-1H-imidazol-2-ylsulfanyl)-phenyl]-[2-(3,4,5-trimethoxy-phenyl)-furo[3,2-b]pyridin-7-yl]-amine]: the negative logarithm of the IC50 (pIC50) against KDR, against SRC and on Syk was 4.30 to 5.52 throughout.

Turning to `Cc1c(Nc2ccnc3cc(-c4ccccc4)oc23)ccc2[nH]ccc12` [Compound B21, (4-Methyl-1H-indol-5-yl)-(2-phenyl-furo[3,2-b]pyridin-7-yl)-amine], the pIC50 against KDR was 5.52 to 6.52; on SRC it was over 6.52; on Syk, 5.52 to 6.52.

Turning to `COc1cc(-c2cc3nccc(-c4cc(OC)c(OC)c(OC)c4)c3o2)cc(OC)c1OC` [Compound B24, 2,7-Bis-(3,4,5-trimethoxy-phenyl)-furo[3,2-b]pyridine], the results for the pIC50 at KDR, on SRC and on Syk were 4.30 to 5.52, 4.30 to 5.52 and over 6.52, respectively.

Consider `COc1ccc(-c2cc3nccc(-c4ccc(OC)c(OC)c4OC)c3o2)c(OC)c1OC` [Compound B40, 2,7-Bis-(2,3,4-trimethoxy-phenyl)-furo[3,2-b]pyridine], for which the negative-log IC50 (pIC50) at KDR was 5.52 to 6.52; on SRC it was 4.30 to 5.52; on Syk it was 5.52 to 6.52.

Regarding `Cc1noc(C)c1-c1cc2nccc(-c3c(C)noc3C)c2o1` [Compound B41, 2,7-Bis-(3,5-dimethyl-isoxazol-4-yl)-furo[3,2-b]pyridine], the pIC50 against KDR, at SRC and on Syk was 4.30 to 5.52 each time.

As for `Cc1ccc(-c2cc3nccc(Nc4ccc5[nH]ccc5c4C)c3o2)cc1` [Compound B46, (4-Methyl-1H-indol-5-yl)-(2-p-tolyl-furo[3,2-b]pyridin-7-yl)-amine], the pIC50 is 5.52 to 6.52 on KDR, over 6.52 on SRC and 4.30 to 5.52 on Syk.

For `COc1ccc(-c2cc3nccc(Nc4ccc5[nH]ccc5c4C)c3o2)cc1` [Compound B47, [2-(4-Methoxy-phenyl)-furo[3,2-b]pyridin-7-yl]-(4-methyl-1H-indol-5-yl)-amine], the negative-log IC50 (pIC50) was 5.52 to 6.52 at KDR, 5.52 to 6.52 against SRC and 4.30 to 5.52 at Syk.

`Cc1c(Nc2ccnc3cc(-c4ccc5c(c4)OCO5)oc23)ccc2[nH]ccc12` [Compound B48]: the negative-log IC50 (pIC50) at KDR was 5.52 to 6.52; at SRC, over 6.52; on Syk it was 5.52 to 6.52.

With `COc1c(C)cc(-c2cc3nccc(Nc4ccc5[nH]ccc5c4C)c3o2)cc1C` [Compound B49, [2-(4-Methoxy-3,5-dimethyl-phenyl)-furo[3,2-b]pyridin-7-yl]-(4-methyl-1H-indol-5-yl)-amine], the pIC50 at KDR is 5.52 to 6.52; against SRC, over 6.52; on Syk it was 5.52 to 6.52.

For orientation: pIC50 means the IC50 on a negative log10 scale, so that one unit is a factor of ten.
